Assay results: patent publication US6844355B2 (Academic Pharmaceuticals, Inc., priority 1999, dated 2005)
Entries after “also recorded” stand apart in the source; their conditions may differ.

What was measured:
ileum = experiment: Ileum strip contractility, isometric muscle contractions; set-up: species or system Guinea pig; settings: for effect on ileum strip contractility, in words: Table 2 / FIG. 9; for Bursts / Slow waves / Spikes: mean ± standard deviation
Experimental: Rat Ileum Studies and Characterization of Chiral Separation Products. Guinea pig ileum is harvested and placed in warm (37° C.) Krebs […] buffer and oxygenated (95% O2 and 5% CO2). Segments approximately 4.5 cm long are placed on a transducer (Gilson Instruments) and a preload of 1 gm is placed on the tissue. The tissue is then placed in a chamber and bathed in Tyrode's solution (37.5° C.) and oxygenated (95% O2 and 5% CO2). Muscle contractions are measured isometrically. After stable contractions are obtained, a study compound is added to the tissue bath and recordings are made until a new steady state of contraction is obtained. Following a washout period, a new steady state of contraction is recorded and then the procedure repeated with a second dose of the drug being evaluated. Changes in contraction magnitude are recorded as the percentage change from baseline. This procedure is a modification of the technique described by Van Neuten and associates (Van Neuten et al., Life Sci. 1978 28:453-458). […] The preparation permits the identification of slow waves of contraction, bursts of contraction of the smooth muscle and spikes of marked cross-sectional contraction. Each of the measures can be used as a measurement of contractile effect of an agent.

KVLQT1+KCNE1 (IKs) = target: T1, KVLQT1+KCNE1 (IKs) (Homo sapiens, UniProt P51787); experiment: KVLQT1+KCNE1 (IKs) currents in Xenopus oocytes; format: cell-based
T1 construct: expressed in transfected cells; host or cells: Xenopus laevis oocytes (co-injection of hminK and KVLQT1 cRNA)
T1 sequence (P51787 whole entry): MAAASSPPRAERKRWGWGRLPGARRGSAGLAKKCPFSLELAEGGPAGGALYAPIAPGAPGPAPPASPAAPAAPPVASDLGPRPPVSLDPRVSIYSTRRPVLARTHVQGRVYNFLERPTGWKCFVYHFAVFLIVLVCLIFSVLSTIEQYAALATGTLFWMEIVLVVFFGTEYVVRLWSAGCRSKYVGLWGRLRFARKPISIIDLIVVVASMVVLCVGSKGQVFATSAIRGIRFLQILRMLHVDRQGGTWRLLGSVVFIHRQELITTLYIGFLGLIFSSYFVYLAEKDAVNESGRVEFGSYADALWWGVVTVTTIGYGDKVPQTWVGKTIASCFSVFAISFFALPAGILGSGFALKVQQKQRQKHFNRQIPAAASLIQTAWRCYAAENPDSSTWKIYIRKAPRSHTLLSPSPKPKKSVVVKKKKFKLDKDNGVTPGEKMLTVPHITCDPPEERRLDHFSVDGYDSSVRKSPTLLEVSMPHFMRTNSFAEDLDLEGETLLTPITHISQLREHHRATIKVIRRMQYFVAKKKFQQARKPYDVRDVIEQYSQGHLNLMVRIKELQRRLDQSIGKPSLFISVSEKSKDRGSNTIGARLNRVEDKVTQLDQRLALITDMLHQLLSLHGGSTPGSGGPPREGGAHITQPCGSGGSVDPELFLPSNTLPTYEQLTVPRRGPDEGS
Experimental: Wild type human minK (KCNE1) and KVLQT1 cDNA are isolated from human cardiac and pancreas cDNA libraries and cloned into the pSP64 poly (A) vector (Promega). For transcription in oocytes, the minK is subcloned from genomic DNA using the MKEL and MKER primers. The final minK expression construct contains cDNA inserted in the plasmid vector (PROMEGA). For the injection into Xenopus oocytes, cRNA is prepared using the mCAP RNA capping kit (Stratagene) following linearization of the expression construct by restriction digestion with EcoRI for run-off transcription.
In-vitro transcription is performed with SP6 RNA polymerize using the mMessage Machine kit (Ambion). The final capped-cRNA product is resuspended in 0.1 mM KCL and stored at −80° C. The concentration of synthesized RNA is estimated by separating the denatured cRNA on a 1.5% agarose gel together with the 0.24-9.5 kb RNA ladder (Gibco-BRL).
KVLQT1+KCNE1 currents are recorded with a solution containing in mmol-L: NaCl-96; KCl-2 CaCl2-1.8; MgCl2-1.0; and HEPES 5, pH 7.4. The following testing protocols are used: a) I-V plot, oocytes are held at −80 mV, then step pulses from −60 mV to +40 mV in 20 mV increments of 18 seconds are applied returning to −40 mV; b) Single pulses, the same protocol is applied for control current and after drug perfusion for current measurement. From a holding potential of −80 mV to a test potential of +40 mV during 18 seconds a pulse is applied. […] The cell is either left at a resting potential of −80 mV or stimulated from a holding potential of −80 mV to a test potential of +40 mV during 1000 ms in a frequency range of 0.3 Hz.
Isolation of oocytes and cRNA injection. Xenopus laevis frogs are anesthetized by immersion in 0.2% Trocaine for 15-30 min. A small incision is made in the lateral ventral quadrant of the abdomen and a small piece of ovarian tissue is removed. The incision is then sutured at both the muscle and the cutaneous layers with fine silk thread and the animal is allowed to recover. The ovarian lobe is digested with 10 mg/ml type 1A collagenase (Sigma) in calcium-free solution for 30-60 min to remove the follicle layer. Stage V and VI oocytes are injected with 40 nl of a solution containing 10 to 50 ng/μl cRNA of either SCN5A, HERG, or hminK and KVLQT1, and then incubated at 19° C. in a modified bath solution for 2-8 days.

C=C[C@H]1C[N@@]2CC[C@H]1C[C@H]2[C@H](O)c1ccnc2ccc(OC)cc12 [quinine]
effect on ileum strip contractility, in words (ileum): no effect

CCCCc1oc2ccccc2c1C(=O)c1cc(I)c(OCCN(CC)CC)c(I)c1 [AMIODARONE, amiodarone]
effect on IKs current, in words (KVLQT1+KCNE1 (IKs); 100 μM): inhibits the current flow across the IKs channel | % of block of IKs (KVLQT1+KCNE1 (IKs); 10^−4 Molar): 47 ± 1% | % of block of IKs (KVLQT1+KCNE1 (IKs); 10^−5 Molar): 30 ± 3% | % of block of IKs (KVLQT1+KCNE1 (IKs); 10^−6 Molar): 15 ± 1%

C=C[C@H]1C[N@@]2CC[C@H]1C[C@@H]2[C@@H](O)c1ccnc2ccc(OC)cc12 [Quinidine, quinidine]
% of block of IKs (KVLQT1+KCNE1 (IKs); 10^−4 Molar): 52 ± 5% | % of block of IKs (KVLQT1+KCNE1 (IKs); 10^−5 Molar): 21 ± 7% | % of block of IKs (KVLQT1+KCNE1 (IKs); 10^−6 Molar): 14 ± 5% | reduction of IKs currents (KVLQT1+KCNE1 (IKs); concentrations from 10^−6 to 10^−4, respectively): 14 to 52% | Bursts (ileum; 10^−5 M): 14 ± 4 | Slow waves (ileum; 10^−5 M): 6 ± 1 | Spikes (ileum; 10^−5 M): 15 ± 1 | Bursts (ileum; 10^−6 M): 7.7 ± 1.2 | Slow waves (ileum; 10^−6 M): 3.0 ± 0.5 | Spikes (ileum; 10^−6 M): 13 ± 2 | Bursts (ileum; 10^−7 M): 8 ± 2 | Slow waves (ileum; 10^−7 M): 3.3 ± 0.6 | Spikes (ileum; 10^−7 M): 11 ± 1 | effect on rat illeal strip tracings, in words (ileum; 10^−7 and 10^−6 M, FIG. 9 legend): reduces the magnitude of contraction | effect on ileum strip contractility, in words (ileum): augmentation of slow wave contractility, burst contractility and spike contractility; also recorded: increases slow waves
